Data as given in article PMC6973020, “Quinoline‐Conjugated Ruthenacarboranes: Toward Hybrid Drugs with a Dual Mode of Action” (Chemmedchem, 2019).

Assays:
MCF‐7 cells = assay: DAPI staining, fluorescence microscopy, MCF‐7; assay type: cell-based, human; conditions: MCF‐7, 20 μM, 72 h
Description: Flow cytometry. For gaining better insights into the mechanisms of action of the ruthenium complexes, MCF‐7 and LN229 cells incubated with an IC50 dose of 3 or 4, were analyzed via flow cytometry. Several staining protocols were carried out in parallel, in independent experiments: i) AnnV/PI for the detection of apoptotic cell death, ii) AO for the detection of acidic vacuoles, iii) ApoStat for checking caspase activation, iv) CFSE for detecting interference with cellular proliferation, and v) DAPI for the detection of morphological signs of apoptosis. Untreated cells or cells treated only with BSA (control) were also measured, as reference for BSA‐free and BSA‐containing drug formulations, respectively. […] Channels FL1 (green emission), FL2 (orange emission) and/or FL3 (dark red emission) were used for fluorescence detection, according to the specific staining agent. Sideward Scatter (SSC) for MCF‐7 cells treated with 4 or BSA−4 was also analyzed, with respect to the control, for detection of shifts of cell granularity. […]
FCS, 2 mM L‐glutamine, 0.01% sodium pyruvate and antibiotics, at 37 °C in a humidified atmosphere with 5% CO2. […] Cells were counted and seeded in 96‐well plates and incubated overnight, as described above. […]
Staining Protocols for Flow Cytometric Analysis. […] Finally, cells were washed in PBS, resuspended in PBS (or AnnV‐binding buffer for AnnV/PI), and analysed. […]

U251 human glioma = assay: Crystal violet (CV) cell viability assay, U251; assay type: cell-based; conditions: CV assay, 72 h; read-out: IC50 U251
From the text: (§1) Thus, care must be taken when comparing their biological activities with those of our previous studies, even with the same cell line, because the covalent vs. non‐covalent combination of drugs might imply different mechanisms of action in the cell.44 Here, we studied the in vitro activity of ruthenacarborane 3, i. e. free acid, and its 8‐hydroxyquinolyl (4) and 4‐{(7‐chloroquinolin‐4‐yl)oxy}butanol‐1‐yl (5) esters, against a panel of cancer cell lines (B16 mouse melanoma, A375 human skin melanoma, MCF‐7 human breast adenocarcinoma, LN229 human glioblastoma, U251 human glioma). Human fibroblast cell line MRC‐5, murine microglial cell line BV‐2 as well as peritoneal exudate cells (Mph), were chosen as models for non‐malignant cells. […] On the other side, we wanted to assess the reproducibility of the viability data, under either controlled (with BSA) or uncontrolled (without BSA) conditions, in two sets of independent assays. […] Cells were exposed to 3–5 for 72 h, after which cell viability was determined via 3‐(4,5‐dimethylthiazol‐2‐yl)‐2,5‐diphenyltetrazolium bromide (MTT) and crystal violet (CV) assays, in parallel (Table 2). Cisplatin was also tested as reference.
Preparation of drug solutions. […] Stock solution of cisplatin was prepared in DMF (10 mM) immediately before use. A stock solution of BSA in PBS was prepared at 1.28 mM concentration, and stored at 4 °C in the dark. […] Alternatively, 3 or 4 (DMSO stock solution) were added to the BSA solution in PBS, always with a 10 : 1 molar ratio of BSA to ruthenacarborane. The BSA−ruthenacarborane solutions were incubated 0.5–1 h at room temperature, then diluted with cell culture medium to the desired final concentrations. Final concentrations of 3 and 4 were the same as for the BSA‐free formulation. Final DMSO was 0.02–0.5 vol %.
Colorimetric assays for cellular viability. […] For counting the number of attached (viable) cells, cells were fixed with 4 % (w/v) paraformaldehyde for 10 min at room temperature, and subsequently stained for 15 min with […] crystal violet (CV) solution. Cells were then washed with tap water, dried in air, and the CV dye was dissolved in 33 % (w/v) acetic acid solution. For the detection of mitochondrial respiration, cells were cultivated in MTT staining solution (0.5 mg mL^−1) for approximately 1 h. The dye was then discarded, and the formed formazan (purple) was dissolved in DMSO. The absorbance was measured with an automated microplate reader at λmax 540 nm, with the reference λmax 670 nm. Untreated cells or cells treated only with BSA (control) were also measured, as reference for BSA‐free and BSA‐containing drug formulations, respectively. For determination of the role of autophagy specific inhibitors, CQ or 3‐MA, were applied at a concentration of 20 μM and 0.5 mM, respectively, and the cells were stained with CV dye. Cell viability is expressed as percentage (%) relative to control (untreated cultures).58 Experiments were run in three independent replicates. […] Non‐linear regression analyses of the obtained results was done using GraphPad Prism software to calculate IC50 values.
mouse microglial cell line BV‐2 was a kind gift from Dr. Irena Lavrnja, Institute for Biological Research
“Siniša Stanković” (University of Belgrade).

[1] = test system: U251 and LN229 cell lines; assay: Cell viability assays (MTT, CV), summary for glioma and glioblastoma lines; assay type: cell-based, human; conditions: 72 h
From the text: as §1
Preparation of drug solutions. […] Stock solution of cisplatin was prepared in DMF (10 mM) immediately before use. A stock solution of BSA in PBS was prepared at 1.28 mM concentration, and stored at 4 °C in the dark. […] Alternatively, 3 or 4 (DMSO stock solution) were added to the BSA solution in PBS, always with a 10 : 1 molar ratio of BSA to ruthenacarborane. […]
Colorimetric assays for cellular viability. […] The absorbance was measured with an automated microplate reader at λmax 540 nm, with the reference λmax 670 nm. Untreated cells or cells treated only with BSA (control) were also measured, as reference for BSA‐free and BSA‐containing drug formulations, respectively. […] Cell viability is expressed as percentage (%) relative to control (untreated cultures).58 Experiments were run in three independent replicates. […]

closo‐ [Compound 3, closo‐ [3‐(η^6‐p‐Cymene)‐1‐(CH2COOH)‐3,1,2‐RuC2B9H10]]
morphological signs of apoptosis (DAPI) (MCF‐7 cells): sparse morphological signs of apoptosis
IC50 (U251 human glioma): > 100 µM
activity against LN229 and U251 (in words) ([1]; concentration range tested up to 100 μM): inactive

closo ‐[3‐(η^6‐p‐Cymene)‐1‐(quinolin‐8‐yl‐acetate)‐3,1,2‐RuC2B9H10] [Compound 4]
morphological signs of apoptosis (DAPI) (MCF‐7 cells): sparse morphological signs of apoptosis
IC50 (U251 human glioma): 45.1 ± 0.8 µM
IC50 ([1]; range over both cell lines, depending on assay and formulation type, read-out: IC50 concentrations against U251 and LN229): 33 to 45 µM
